Starred links: 1 amine or outer side, 2 acyl side, 3 side chain; linkers in the order of their positions; H or OH if unused. Non-standard residues stand in square brackets, D forms with d. Residues, ends and D or L forms follow the SMILES beside them. Groups on a side chain read outwards from the residue. *: point of attachment. Isobutyryl(2-(3-CN-5-F-Ph)) = CC(C)(C(=O)*)c1cc(F)cc(C#N)c1; C20 diacid = O=C(O)CCCCCCCCCCCCCCCCCCC(=O)*; γGlu = O=C(O)[C@H](CCC(=O)[*:2])N[*:1]; AEEA = NCCOCCOCC(=O)O; Aib = CC(C)(N)C(=O)O; βAla = NCCC(=O)O
Tests used:
human GLP-1R [1] = biological target: T1, human GLP-1R (Homo sapiens, UniProt P43220); test: cAMP accumulation (HitHunter), CHO-K1 cells expressing SNAP-human GLP-1R; format: cell-based; design: expressed in transfected cells
T1 sequence (P43220 24-463): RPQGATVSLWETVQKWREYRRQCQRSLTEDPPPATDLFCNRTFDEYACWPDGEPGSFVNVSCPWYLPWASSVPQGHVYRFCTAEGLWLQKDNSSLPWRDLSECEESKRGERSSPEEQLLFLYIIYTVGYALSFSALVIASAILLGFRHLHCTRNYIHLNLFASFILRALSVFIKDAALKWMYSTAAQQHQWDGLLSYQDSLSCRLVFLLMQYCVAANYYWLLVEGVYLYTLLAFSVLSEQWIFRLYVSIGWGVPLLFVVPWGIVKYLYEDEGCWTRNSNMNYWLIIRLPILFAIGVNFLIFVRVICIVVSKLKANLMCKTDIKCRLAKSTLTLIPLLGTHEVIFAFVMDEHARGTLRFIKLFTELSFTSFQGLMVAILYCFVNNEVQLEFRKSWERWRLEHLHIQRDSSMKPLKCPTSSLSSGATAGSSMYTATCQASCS
Method: (§1) cAMP production was measured using the HitHunter® cAMP Assay for Small Molecules kit in mammalian cell lines overexpressing either GLP-1R or GIPR. […] A total of 10,000 cells in 5 μL of media were added to each well of a 384-well, low-volume assay plate. For mouse receptor cAMP assays, either U2OS cells stably expressing mouse GLP-1R (DiscoverX 95-0179C3) or CHO-K1 cells stably expressing mouse GIPR (DiscoverX 95-0154C2) were used. Twenty-four hours before the assay, 5000-10,000 cells per well were plated in 384-well, low-volume tissue culture-treated plates in Assay Complete Cell Plating reagent 2 (murine GIPR cells) or 5 (murine GLP-1R cells). […] Compounds were diluted 1:1 in DMSO and 5 nL was transferred to the tissue-culture plate wells using an ECHO Acoustic Liquid Handler (Beckman Coulter).
(§2) Each dilution series was normalized to the adjacent high (100%) and low (0%) wells on the plate. Dose-response data were fitted to a curve using nonlinear regression analysis using the “log(agonist) vs response-variable slope” setting, where:
(§3) Y=Bottom+(Top−Bottom)/(1+10^((Log EC50−X)*HillSlope))
(§4) and the Hillslope was constrained to 1. Compound potency and efficacy were extracted from this regression analysis. […] For NanoBiT assays, a single time point during the 30-minute activity measurements was selected for maximum luminescence response. […]

human GIPR [2] = biological target: T2, human GIPR (Homo sapiens, UniProt P48546); test: cAMP accumulation (HitHunter), CHO-K1 cells expressing SNAP-human GIPR; format: cell-based; design: expressed in transfected cells
T2 sequence (P48546 22-466): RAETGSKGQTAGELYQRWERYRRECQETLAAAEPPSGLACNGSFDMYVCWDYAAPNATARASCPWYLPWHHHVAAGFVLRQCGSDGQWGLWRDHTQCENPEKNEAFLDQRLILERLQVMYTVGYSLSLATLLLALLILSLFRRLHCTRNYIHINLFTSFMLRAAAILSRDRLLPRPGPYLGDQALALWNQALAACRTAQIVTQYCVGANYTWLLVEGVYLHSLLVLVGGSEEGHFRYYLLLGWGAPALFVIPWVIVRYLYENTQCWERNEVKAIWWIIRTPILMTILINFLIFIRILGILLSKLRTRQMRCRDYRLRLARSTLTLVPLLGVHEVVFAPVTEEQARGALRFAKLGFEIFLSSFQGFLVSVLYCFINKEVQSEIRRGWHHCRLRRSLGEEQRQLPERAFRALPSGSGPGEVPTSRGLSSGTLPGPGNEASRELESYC
Method: as §1, §2, §3, §4

[3] = Phase 1 SAD: pharmacokinetics; format: in vivo; details: human, serum; SAD Cohort 4 (6.0 mg) single SC dose; read-out: Vz/F (mean)
Description: PK parameters were also summarized using descriptive statistics (number of participants, mean, geometric mean, standard deviation, coefficient of variation, median, minimum, and maximum). In the SAD portion, the power model was used to assess dose proportionality.

human GLP-1R [4] = biological target: T1, human GLP-1R; test: Receptor internalization (Nano-Glo HiBiT), HEK293, human GLP-1R; format: cell-based; design: expressed in transfected cells
Method: Receptor internalization for human GLP-1R and GIPR was measured with Promega's Nano-Glo® HiBit extracellular detection system in HEK293 cells. Receptor internalization for human GLP-1R and GIPR was measured using the Promega Nano-Glo© HiBit extracellular detection system (Promega Corporation). HEK293 cells were transiently transfected with 1000:1 ratio of carrier plasmid (pcDNA3.1) and plasmids containing HiBiT-tagged human GLP-1R or human GIPR sequences (Promega Corporation). Cells were dissociated the following day using TrypLE express enzyme (ThermoFisher Scientific) and plated in 96-well plates at 80,000-100,000 cells per well. Forty-eight hours post-transfection, media was replaced with equal parts CO2 independent media (Gibco) and Nano-Glo extracellular buffer containing LgBiT protein (diluted 1:100), and Nano-Glo HiBiT extracellular substrate (diluted 1:50). After a 15-minute equilibration and background luminescence reading, test compounds were added and the luminescence was measured for 120 minutes at two-minute intervals using an EnVision Multimode Plate Reader (PerkinElmer).
as §4

human GIPR [5] = biological target: T2, human GIPR; test: β-arrestin-2 recruitment (NanoBiT), HEK293, human GIPR; format: cell-based; design: expressed in transfected cells; host or cells: HEK293 (stably or transiently transfected); details: HEK293, read-out: β-arrestin-2 % Emax
Method: (§5) β-arrestin recruitment was measured using Promega's NanoBiT technology and Nano-Glo® Live Cell Substrate in HEK293 cells. β-arrestin-2 recruitment was measured using Promega's NanoBiT technology and Nano-Glo® Live Cell Substrate (catalog number N2012), which uses the NanoLuc luciferase split into two subunits called LgBiT and SmBiT. HEK293 cells were either stably or transiently transfected with equal amounts of DNA plasmids expressing the fusion proteins human GLP-1R-LgBiT or GIPR-LgBiT and SmBiT-(human)-β-arrestin-2; similar methods were used for mouse GLP-1R, GIPR, and β-arrestin-2. […] The following day, the media was removed and replaced with 10 μL of a 1:100 dilution of Nano-Glo® Live Cell Substrate with NanoBiT buffer and OptiMem and equilibrated to room temperature for ten minutes covered. Background luminescence was measured before adding 100 nL of compound dilutions (made in a 1:1 ratio in DMSO). Compounds were transferred using an ECHO Acoustic Liquid Handler (Beckman Coulter) and luminescence was measured at 1.5-minute intervals for 15 minutes using an EnVision Multimode Plate Reader (PerkinElmer; Waltham, MA).
(§6) Each dilution series was normalized to the adjacent high (100%) and low (0%) wells on the plate. […]
(§7) and the Hillslope was constrained to 1. […] For NanoBiT assays, a single time point during the 30-minute activity measurements was selected for maximum luminescence response. […]

human GLP-1R [6] = biological target: T1, human GLP-1R; test: β-arrestin-2 recruitment (NanoBiT), HEK293, human GLP-1R; format: cell-based; design: expressed in transfected cells; host or cells: HEK293 (stably or transiently transfected); details: HEK293, read-out: β-arrestin-2 % Emax
Method: as §5, §6, §7

`CC[C@H](C)[C@H](NC(=O)[C@H](CC(C)C)NC(=O)[C@H](Cc1c[nH]c2ccccc12)NC(=O)[C@H](CCC(N)=O)NC(=O)[C@@H](NC(=O)[C@H](Cc1ccccc1)NC(=O)[C@H](C)NC(=O)[C@H](CCCCNC(=O)COCCOCCNC(=O)COCCOCCNC(=O)CC[C@H](NC(=O)CCCCCCCCCCCCCCCCCCC(=O)O)C(=O)O)NC(=O)[C@H](CCC(N)=O)NC(=O)[C@H](C)NC(=O)[C@@H](NC(=O)[C@H](CCCCN)NC(=O)[C@H](CC(=O)O)NC(=O)[C@H](CC(C)C)NC(=O)C(C)(C)NC(=O)[C@@H](NC(=O)[C@H](CO)NC(=O)[C@H](Cc1ccc(O)cc1)NC(=O)[C@H](CC(=O)O)NC(=O)[C@H](CO)NC(=O)[C@@H](NC(=O)[C@H](Cc1ccccc1)NC(=O)[C@@H](NC(=O)CNC(=O)[C@H](CCC(=O)O)NC(=O)CCNC(=O)C(C)(C)c1cc(F)cc(C#N)c1)[C@@H](C)O)[C@@H](C)O)[C@@H](C)CC)[C@@H](C)CC)C(C)C)C(=O)N[C@@H](C)C(=O)NCC(=O)NCC(=O)N1CCC[C@H]1C(=O)N[C@@H](CO)C(=O)N[C@@H](CO)C(=O)NCC(=O)N[C@@H](C)C(=O)N1CCC[C@H]1C(=O)N1CCC[C@H]1C(=O)N1CCC[C@H]1C(=O)N[C@@H](CO)C(N)=O` [CT-388] ({Isobutyryl(2-(3-CN-5-F-Ph))-βAla}-EGTFTSDYSI[Aib]LDKIAQK([AEEA-AEEA-γGlu-C20 diacid])AFVQWLIAGGPSSGAPPPS-NH2) gave an Emax (human GLP-1R [1]) of 99%, an Emax (human GIPR [2]) of 92% and a Vd/F [3] of 11.4 L. The Emax (human GLP-1R [4]) was 6%, the Emax (human GIPR [5]) was 28% and the Emax (human GLP-1R [6]) was 4%.
